Consider 34 compounds from the supplement of paper PMC9103864.

The test system of test [1] is BMSC (primary human bone marrow mesenchymal stromal cells). Description: absolute EC50 for viability; higher = less sensitive.
The test system is the same in test [2]. Description: drug sensitivity score (DSS); higher = more sensitive.

With `C=C(c1ccc(C(=O)O)cc1)c1cc2c(cc1C)C(C)(C)CCC2(C)C` [Bexarotene], the “absolute EC50 for viability” value in test [1] is > 10000 nM. Also, in test [2], the drug sensitivity score worked out at 0.
With `CCNC(=O)CCC/C=C\C[C@@H]1[C@@H](/C=C/[C@@H](O)CCc2ccccc2)[C@H](O)C[C@@H]1O` [Bimatoprost], in test [1], the “absolute EC50 for viability” value is > 5500 nM. The drug sensitivity score in test [2] was -0.9.
As to `Cn1cnc2c(F)c(Nc3ccc(Br)cc3F)c(C(=O)NOCCO)cc21` [Binimetinib], the “absolute EC50 for viability” value in test [1] is > 1000 nM. This compound also came in with a drug sensitivity score in test [2] of 1.9.
On the same counts, the results for `Cc1sc2c(c1C)C(c1ccc(Cl)cc1)=N[C@@H](CC(=O)Nc1ccc(O)cc1)c1nnc(C)n1-2` [Birabresib] are > 10000 nM and 4.9.
On the same counts, the results for `CC[C@H](NC(=O)[C@H](C)NC)C(=O)N1C[C@@H](O)C[C@H]1Cc1c(-c2[nH]c3cc(F)ccc3c2C[C@@H]2C[C@H](O)CN2C(=O)[C@H](CC)NC(=O)[C@H](C)NC)[nH]c2cc(F)ccc12` [Birinapant] are > 1000 nM and 0.
The matching figures for `Cc1c(N)nc([C@H](CC(N)=O)NC[C@H](N)C(N)=O)nc1C(=O)N[C@H](C(=O)N[C@H](C)[C@@H](O)[C@H](C)C(=O)N[C@H](C(=O)NCCc1nc(-c2nc(C(=O)NCCC[S+](C)C)cs2)cs1)[C@@H](C)O)[C@@H](OC1OC(CO)C(O)C(O)C1OC1OC(CO)C(O)C(OC(N)=O)C1O)c1cnc[nH]1` (stereo partly drawn) [Bleomycin]: > 10000 nM and 2.5.
For `CC(C)C[C@H](NC(=O)[C@H](Cc1ccccc1)NC(=O)c1cnccn1)B(O)O` [Bortezomib], the “absolute EC50 for viability” value in test [1] stood at 50.7 nM. For the same compound, the drug sensitivity score in test [2] stood at 14.5.
Take `COc1cc(Nc2c(C#N)cnc3cc(OCCCN4CCN(C)CC4)c(OC)cc23)c(Cl)cc1Cl` [Bosutinib]: in test [1], the “absolute EC50 for viability” value worked out at 1690 nM. The drug sensitivity score in test [2] was 8.8.
The matching figures for `COc1cc(N2CCC(N3CCN(C)CC3)CC2)ccc1Nc1ncc(Cl)c(Nc2ccccc2P(C)(C)=O)n1` [Brigatinib]: 944 nM and 2.8.
The matching figures for `Cc1cc2c(F)c(Oc3ncnn4cc(OC[C@@H](C)O)c(C)c34)ccc2[nH]1` [Brivanib]: > 1000 nM and 0.
On the same counts, the results for `CCC/C=C/C=C/C(=O)O[C@H]1/C(=C/C(=O)OC)C[C@H]2C[C@H]([C@@H](C)O)OC(=O)C[C@H](O)C[C@@H]3C[C@H](OC(C)=O)C(C)(C)[C@](O)(C[C@@H]4C/C(=C/C(=O)OC)C[C@H](/C=C/C(C)(C)[C@]1(O)O2)O4)O3` [Bryostatin 1] are > 100 nM and 0.
Take `Nc1cc(C(F)(F)F)c(-c2cc(N3CCOCC3)nc(N3CCOCC3)n2)cn1` [Buparlisib]: in test [1], the “absolute EC50 for viability” value came out at 2110 nM. The compound also yielded a drug sensitivity score in test [2] of 7.8.
As to `Cc1nc2cccc(N)c2c(=O)n1C1CCC(=O)NC1=O` (stereo not drawn) [CC122], the “absolute EC50 for viability” value in test [1] was 9930 nM. Besides, in test [2], the drug sensitivity score was 0.
On the same counts, the results for `CCN1C(=O)CNc2ncc(-c3ccc(-c4nc[nH]n4)nc3C)nc21` [CC-115] are 2860 nM and 6.9.
The matching figures for `CO[C@H]1CC[C@H](N2C(=O)CNc3ncc(-c4ccc(C(C)(C)O)nc4)nc32)CC1` [CC-223]: 6040 nM and 4.4.
The matching figures for `COc1cc(C)[nH]c(=O)c1CNC(=O)c1c(C)n([C@H](C)C2CCOCC2)c2ccccc12` [CPI-360]: > 10000 nM and 0.
For the compound `Cc1noc2c1-c1ccccc1C(c1ccc(Cl)cc1)=N[C@H]2CC(N)=O` [CPI-0610], the “absolute EC50 for viability” value in test [1] is > 10000 nM. For the same compound, the drug sensitivity score in test [2] is 0.
The matching figures for `O=C(O)CCCCC(CCSCc1ccccc1)SCc1ccccc1` (stereo not drawn) [CPI-613]: > 10000 nM and 0.
As for `CN(C)c1cc2c(cc1Sc1nc3c(N)nccc3n1CCNCC(C)(C)C)OCO2` [CUDC-305], the “absolute EC50 for viability” value in test [1] was found to be 1150 nM. In addition, the drug sensitivity score in test [2] came out at 8.8.
The matching figures for `COc1ccc(-c2nc(N3CCOCC3)c3sc(CN(C)c4ncc(C(=O)NO)cn4)cc3n2)cn1` [CUDC-907]: 64.9 nM and 24.6.
Regarding `CO[C@H]1C(=O)[C@]2(C)[C@@H](OC)C[C@H]3OC[C@@]3(OC(C)=O)[C@H]2[C@H](OC(=O)c2ccccc2)[C@]2(O)C[C@H](OC(=O)[C@H](O)[C@@H](NC(=O)OC(C)(C)C)c3ccccc3)C(C)=C1C2(C)C` [Cabazitaxel], the “absolute EC50 for viability” value in test [1] was > 1000 nM. Besides, in test [2], the drug sensitivity score worked out at 7.2.
For the compound `COc1cc2nccc(Oc3ccc(NC(=O)C4(C(=O)Nc5ccc(F)cc5)CC4)cc3)c2cc1OC` [Cabozantinib], the “absolute EC50 for viability” value in test [1] is > 1000 nM. In test [2], the drug sensitivity score stood at 3.6.
Consider `C=CC(=O)Nc1cc2c(Nc3ccc(F)c(Cl)c3)ncnc2cc1OCCCN1CCOCC1` [Canertinib], for which the “absolute EC50 for viability” value in test [1] was > 10000 nM. In test [2], the drug sensitivity score turned out to be 3.7.
The matching figures for `CCCCCOC(=O)Nc1nc(=O)n([C@@H]2O[C@H](C)[C@@H](O)[C@H]2O)cc1F` [Capecitabine]: > 10000 nM and 0.
The matching figures for `CNC(=O)c1ccc(-c2cnc3ncc(Cc4ccc5ncccc5c4)n3n2)cc1F` [Capmatinib]: > 1000 nM and 0.5.
The matching figures for `O=C(O)C1(C(=O)O)CCC1.[NH2-].[NH2-].[Pt+2]` [Carboplatin]: > 100000 nM and 2.5.
For `CC(C)C[C@H](NC(=O)[C@H](CCc1ccccc1)NC(=O)CN1CCOCC1)C(=O)N[C@@H](Cc1ccccc1)C(=O)N[C@@H](CC(C)C)C(=O)[C@@]1(C)CO1` [Carfilzomib], the “absolute EC50 for viability” value in test [1] is 18.7 nM. Besides, in test [2], the drug sensitivity score turned out to be 19.7.
On the same counts, the results for `COc1cc2c(Oc3ccc4[nH]c(C)cc4c3F)ncnc2cc1OCCCN1CCCC1` [Cediranib] are > 1000 nM and 2.5.
The matching figures for `Cc1ccc(-c2cc(C(F)(F)F)nn2-c2ccc(S(N)(=O)=O)cc2)cc1` [Celecoxib]: > 10000 nM and 0.
On the same counts, the results for `CCS(=O)(=O)N1CCN(c2ccc(Nc3ncc(C(N)=O)c(NC4CC4)n3)cc2)CC1` [Cerdulatinib] are > 10000 nM and 5.1.
Turning to `Cc1cc(Nc2ncc(Cl)c(Nc3ccccc3S(=O)(=O)C(C)C)n2)c(OC(C)C)cc1C1CCNCC1` [Ceritinib], the “absolute EC50 for viability” value in test [1] was > 2500 nM. This compound registered a drug sensitivity score in test [2] of 1.3.
On the same counts, the results for `CCN(CC)CCCC(C)Nc1ccnc2cc(Cl)ccc12` (stereo not drawn) [Chloroquine] are 12800 nM and 10.3.
The matching figures for `CC(C)[C@H]1C(=O)N[C@@H](CCCNC(=N)N)C(=O)NCC(=O)N[C@@H](CC(=O)O)C(=O)N[C@H](Cc2ccccc2)C(=O)N1C` [Cilengitide]: > 10000 nM and 1.4.
Turning to `N.N.[Cl][Pt][Cl]` [Cisplatin], the “absolute EC50 for viability” value in test [1] came to 48500 nM. Also, in test [2], the drug sensitivity score turned out to be 3.6.
